Results taken from patent publication US4036962A, “6,7-Methylenedioxy-1-(2,2,2-trifluoroethyl)-4(1H)-quinolone-3-carboxylic acid and its salts and esters” (E. I. Du Pont de Nemours and Co., priority 1975, dated 1977).
Where two headings read alike, the source gives them in different places.

Columns and labels:
[1] = Biological activity of stable versus metastable crystalline form (test not specified); format: in vivo; details: probably due to poor absorption
Escherichia coli = experiment: In vivo antibacterial activity in mice infected with Escherichia coli (intraperitoneal), compound given orally at infection and 4 hours later; mortality through third day; details: for ED50: Escherichia coli, po, 72 h
Method: Use of the ester of this invention as antibacterial agents is exemplified by data for 6,7-methylene-1-(2,2,2-trifluoroethyl)-4(1H)-quinolone-3-carboxylic acid, trimethylacetoxymethyl ester. In vivo determinations of antibacterial activity are carried out in mice.
The test bacterium is grown into bacteriological medium from frozen stock cultures. The culture is centrifuged, resuspended, centrifuged again, resuspended in fresh bacteriological medium, and diluted to the proper infective concentration. Mice are infected by intraperitoneal or intravenous injection of 0.2 ml. of the diluted bacterial culture.
Test compounds are dissolved or suspended in water containing 0.01% Tween 80 by either sonication or bead-milling to break up the materials in order to dissolve them or provide a fine suspension for the insoluble compounds. Concentrations are prepared so that when 0.2 ml. of the solution or suspension is administered to mice orally by intubation, the correct amount of compound in mg/kg of mouse is provided.
The mice are dosed with test compound orally by intubation at appropriate intervals following infection and mortality is recorded through the third day. The effective dose 50 (ED50) and lethal dose for 50% kill (LD50) are calculated by the Reed-Muench method.
In Table I are the results of a test in mice infected with Escherichia coli by the intraperitoneal route. Compound was administered orally by intubation immediately following infection and again 4 hours after infection.
^1 Animals dosed orally at the time of infection and again four hours
^2 Determined by agar plate counts and stock culture titration, the
dose is the LD50 multiplied by the number preceding it.

[2] = 2 LD50 E. coli infected mice, oral, read-out: ED50
[3] = 18 LD50 E. coli infection, 10 mg/kg PO, at infection and again 4 hours later
[4] = 18 LD50 E. coli infection, 30 mg/kg PO, at infection and again 4 hours later
[5] = 18 LD50 E. coli infection, 100 mg/kg PO, at infection and again 4 hours later
[6] = 135 LD50 E. coli infection, 10 mg/kg PO, at infection and again 4 hours later
[7] = 135 LD50 E. coli infection, 30 mg/kg PO, at infection and again 4 hours later
[8] = 135 LD50 E. coli infection, 100 mg/kg PO, at infection and again 4 hours later
[9] = 4 LD50 E. coli infected mice, oral, read-out: ED50

## CC(C)(C)C(=O)OCOC(=O)c1cn(CC(F)(F)F)c2cc3c(cc2c1=O)OCO3 [stable form, 6,7-Methylenedioxy-1-(2,2,2-trifluoroethyl)-4(1H)-quinolone-3-carboxylic acid, trimethylacetoxymethyl ester]
[1]
  biological activity of stable form compared with meta-stable form: less active than the meta-stable

## CCCCCCCCCC(=O)OCOC(=O)c1cn(CC(F)(F)F)c2cc3c(cc2c1=O)OCO3 [Example 6D, 6,7-methylenedioxy-1-(2,2,2-trifluoroethyl)-4(1H)-quinolone-3-carboxylic acid, n-decanoyloxymethyl ester]
Escherichia coli; [2]
  ED50: 19 mg/kg

## CCn1cc(C(=O)O)c(=O)c2cc3c(cc21)OCO3 [Oxolinic Acid, reference compound]
Escherichia coli; [3]
  % Survivors: 8%
Escherichia coli; [4]
  % Survivors: 33%
Escherichia coli; [5]
  % Survivors: 83%
Escherichia coli; [6]
  % Survivors: 17%
Escherichia coli; [7]
  % Survivors: 17%
Escherichia coli; [8]
  % Survivors: 25%
Escherichia coli; 18 LD50 E. coli infection, at infection and again 4 hours later, Reed-Muench
  ED50: 45 mg/kg
Escherichia coli; 135 LD50 E. coli infection, at infection and again 4 hours later, Reed-Muench
  ED50: > 100 mg/kg

## O=C(OCOC(=O)c1cn(CC(F)(F)F)c2cc3c(cc2c1=O)OCO3)c1ccccc1 [Example 6F, 6,7-methylenedioxy-1-(2,2,2-trifluoroethyl)-4(1H)-quinolone-3-carboxylic acid, benzoyloxymethyl ester]
Escherichia coli; [9]
  ED50: 34 mg/kg

## CCCCCC(=O)OCOC(=O)c1cn(CC(F)(F)F)c2cc3c(cc2c1=O)OCO3 [Example 6C, 6,7-methylenedioxy-1-(2,2,2-trifluoroethyl)-4(1H)-quinolone-3-carboxylic acid, n-hexanoyloxymethyl ester]
Escherichia coli; [9]
  ED50: 25 mg/kg

## CC(C)C(=O)OCOC(=O)c1cn(CC(F)(F)F)c2cc3c(cc2c1=O)OCO3 [Example 6A, 6,7-methylenedixoy-1-(2,2,2-trifluoroethyl)-4(1H)-quinolone-3-carboxylic acid, iso-butyryloxymethyl ester]
Escherichia coli; [9]
  ED50: 73 mg/kg

## CCC(C)(C)C(=O)OCOC(=O)c1cn(CC(F)(F)F)c2cc3c(cc2c1=O)OCO3 [Example 6B, 6,7-methylenedioxy-1-(2,2,2-trifluoroethyl)-4(1H)-quinolone-3-carboxylic acid, 2,2-dimethyl-n-butyryloxymethyl ester]
Escherichia coli; [9]
  ED50: 40 mg/kg

## O=C(OCOC(=O)C1CCCCC1)c1cn(CC(F)(F)F)c2cc3c(cc2c1=O)OCO3 [Example 6E, 6,7-methylenedioxy-1-(2,2,2-trifluoroethyl)-4(1H)-quinolone-3-carboxylic acid, cyclohexanecarbonyloxymethyl ester]
Escherichia coli; [2]
  ED50: 29 mg/kg

## CC(C)(C)C(=O)OCOC(=O)c1cn(CC(F)(F)F)c2cc3c(cc2c1=O)OCO3 [Example 6, 6,7-Methylenedioxy-1-(2,2,2-trifluoroethyl)-4(1H)-quinolone-3-carboxylic acid, trimethylacetoxymethyl ester]
Escherichia coli; [3]
  % Survivors: 33%
Escherichia coli; [4]
  % Survivors: 50%
Escherichia coli; [5]
  % Survivors: 75%
Escherichia coli; [6]
  % Survivors: 17%
Escherichia coli; [7]
  % Survivors: 8%
Escherichia coli; [8]
  % Survivors: 50%
Escherichia coli; 18 LD50 E. coli infection, PO, at infection and again 4 hours later, Reed-Muench, read-out: ED50
  ED50: 24 mg/kg
Escherichia coli; 135 LD50 E. coli infection, PO, at infection and again 4 hours later, Reed-Muench, read-out: ED50
  ED50: 77 mg/kg
Escherichia coli; systemic Escherichia coli infection of mice, two infecting levels of bacteria
  antibacterial activity compared with oxolinic acid: significantly greater antibacterial activity than does oxolinic acid
